In brackets after ≈: the same amount, converted by molar mass. Read-outs that look alike come from different tables or passages of the source.
Legend:
[1] = tested on: Staphylococcus aureus ATCC 29213, CCM 4223; assay: Antibacterial microdilution broth method, S. aureus; type: cell-based
[2] = tested on: methicillin-resistant Staphylococcus aureus ATCC 43300, CCM 4750 (MRSA); assay: Antibacterial microdilution broth method, MRSA; type: cell-based; conditions: Staphylococcus aureus
[3] = tested on: Staphylococcus epidermidis H 6966/08; assay: Antibacterial microdilution broth method, S. epidermidis; type: cell-based; conditions: Staphylococcus epidermidis, H6966/08, S. epidermidis
[4] = tested on: Enterococcus faecalis ATCC 29212, CCM 4224; assay: Antibacterial microdilution broth method, E. faecalis; type: cell-based; conditions: Enterococcus faecalis
[5] = tested on: Escherichia coli ATCC 25922, CCM 3954; assay: Antibacterial microdilution broth method, E. coli; type: cell-based; conditions: Escherichia coli
[6] = tested on: Pseudomonas aeruginosa ATCC 27853, CCM 3955; assay: Antibacterial microdilution broth method, P. aeruginosa; type: cell-based; conditions: Pseudomonas aeruginosa
[7] = tested on: Mycobacterium tuberculosis H37Rv (331/88); assay: Antimycobacterial micromethod in Šula's medium, M. tuberculosis; type: cell-based
[8] = tested on: Mycobacterium avium 330/88; assay: Antimycobacterial micromethod in Šula's medium, M. avium; type: cell-based
[9] = tested on: Mycobacterium kansasii 235/80; assay: Antimycobacterial micromethod in Šula's medium, M. kansasii 235/80; type: cell-based
[10] = tested on: M. kansasii 6509/96 (clinical isolate); assay: Antimycobacterial micromethod in Šula's medium, M. kansasii 6509/96; type: cell-based; conditions: Mycobacterium kansasii
[11] = tested on: Candida albicans ATCC 44859; assay: Antifungal microdilution broth method, C. albicans; type: cell-based
Experimental: (§1) The antifungal properties were evaluated against five yeast strains, namely: Candida albicans ATCC 44859, Candida tropicalis 156, Candida krusei […], Candida glabrata 20/I, Trichosporon […] 1188 and three strains of filamentous fungi: Aspergillus fumigatus 231, Lichtheimia corymbifera 272, and Trichophyton interdigitale 445. A microdilution broth method was performed according to EUCAST II, III instructions with slight modifications. Briefly, tested compounds were dissolved in DMSO and diluted in a twofold manner with RPMI-1640 medium with L-glutamine, supplemented with 2% glucose (w/v) and buffered to pH 7.0 with 3 morpholinopropane-1-sulfonic acid (all components were purchased from Sigma-Aldrich, USA). […] Positive controls consisted of test microbe solely, while negative controls consisted of medium and DMSO. Internal quality control was included too. Visual inspection was used for MIC endpoints evaluation. The experiments were conducted in duplicates. For the results to be valid, the difference in MIC determined from two parallel measurements must not be greater than one step on the dilution scale. PABA and triazole antimycotic drug fluconazole were involved as the reference compounds.

[12] = tested on: Candida tropicalis 156; assay: Antifungal microdilution broth method, C. tropicalis; type: cell-based
Experimental: as §1

[13] = tested on: Candida krusei E28; assay: Antifungal microdilution broth method, C. krusei; type: cell-based; conditions: Pichia kudriavzevii
Experimental: as §1

[14] = tested on: Candida glabrata 20/I; assay: Antifungal microdilution broth method, C. glabrata; type: cell-based; conditions: Nakaseomyces glabratus
Experimental: as §1

[15] = tested on: Trichosporon asahii 1188; assay: Antifungal microdilution broth method, T. asahii; type: cell-based
Experimental: as §1

[16] = tested on: Aspergillus fumigatus 231; assay: Antifungal microdilution broth method, A. fumigatus; type: cell-based
Experimental: as §1

[17] = tested on: Lichtheimia corymbifera 272; assay: Antifungal microdilution broth method, L. corymbifera; type: cell-based
Experimental: as §1

[18] = tested on: Trichophyton interdigitale 445; assay: Antifungal microdilution broth method, T. interdigitale; type: cell-based
Experimental: as §1

[19] = tested on: four Gram-positive and four Gram-negative strains; assay: Antibacterial activity; type: cell-based; conditions: time not stated
[20] = tested on: Mtb. 331/88 and three non-tuberculous mycobacterial strains; assay: Antimycobacterial activity; type: cell-based; conditions: statement over four mycobacterial strains; time not stated
[21] = tested on: eight fungal strains; assay: Antifungal activity; type: cell-based; conditions: statement over the fungal panel; time not stated
Experimental: as §1

[22] = tested on: ESBL-positive Klebsiella pneumoniae J 14368/08
[23] = tested on: Klebsiella pneumoniae D 11750/08; assay: Antibacterial microdilution broth method, K. pneumoniae; conditions: K. pneumoniae D 11750/08; for MIC KP 24 h: 24 h incubation; for MIC KP 48 h: 48 h incubation
[24] = 24 h incubation, read-out: MIC SA 24 h
[25] = 48 h incubation, read-out: MIC SA 48 h
[26] = 24 h incubation, read-out: MIC MRSA 24 h
[27] = 48 h incubation, read-out: MIC MRSA 48 h
[28] = 24 h incubation, read-out: MIC SE 24 h
[29] = 48 h incubation, read-out: MIC SE 48 h
[30] = 24 h incubation, read-out: MIC EF 24 h
[31] = 48 h incubation, read-out: MIC EF 48 h
[32] = 24 h incubation, read-out: MIC EC 24 h
[33] = 48 h incubation, read-out: MIC EC 48 h
[34] = P. aeruginosa, 24 h incubation, read-out: MIC PA 24 h
[35] = P. aeruginosa, 48 h incubation, read-out: MIC PA 48 h
[36] = 336 h, 14 days incubation at 37 °C, read-out: MIC Mtb. 331/88 14 d
[37] = 504 h, 21 days incubation at 37 °C, read-out: MIC Mtb. 331/88 21 d
[38] = 330/88, 336 h, 14 days incubation at 37 °C, read-out: MIC M. avium 330/88 14 d
[39] = 330/88, 504 h, 21 days incubation at 37 °C, read-out: MIC M. avium 330/88 21 d
[40] = 235/80, 168 h, 7 days incubation at 37 °C, read-out: MIC M. kansasii 235/80 7 d
[41] = 235/80, 336 h, 14 days incubation at 37 °C, read-out: MIC M. kansasii 235/80 14 d
[42] = 235/80, 504 h, 21 days incubation at 37 °C, read-out: MIC M. kansasii 235/80 21 d
[43] = 168 h, 7 days incubation at 37 °C, read-out: MIC M. kansasii 6509/96 7 d
[44] = 336 h, 14 days incubation at 37 °C, read-out: MIC M. kansasii 6509/96 14 d
[45] = 504 h, 21 days incubation at 37 °C, read-out: MIC M. kansasii 6509/96 21 d
[46] = ATCC44859, 24 h, read-out: MIC CA 24 h
[47] = ATCC44859, 48 h, read-out: MIC CA 48 h

O=C(O)c1ccc(N=Cc2ccccc2O)cc1 [1a, 4-[(2-Hydroxybenzylidene)amino]benzoic acid]
MIC [1, 24]: > 500 µM | MIC [1, 25]: > 500 µM | MIC [2, 26]: > 500 µM | MIC [2, 27]: > 500 µM | MIC [3, 28]: > 500 µM | MIC [3, 29]: > 500 µM | MIC [4, 30]: > 500 µM | MIC [4, 31]: > 500 µM | MIC [5, 32]: > 500 µM | MIC [5, 33]: > 500 µM | MIC [6, 34]: > 500 µM | MIC [6, 35]: > 500 µM | MIC [7, 36]: > 1000 µM | MIC [7, 37]: > 1000 µM | MIC [8, 38]: > 1000 µM | MIC [8, 39]: > 1000 µM | MIC [9, 40]: 1000 µM (≈ 241 µg/mL) | MIC [9, 41]: > 1000 µM | MIC [9, 42]: > 1000 µM | MIC [10, 43]: 1000 µM (≈ 241 µg/mL) | MIC [10, 44]: 1000 µM (≈ 241 µg/mL) | MIC [10, 45]: 1000 µM (≈ 241 µg/mL) | MIC [11, 46]: > 500 µM | MIC [11, 47]: > 500 µM | MIC ([12]; 24 h, read-out: MIC CT 24 h): > 500 µM | MIC ([12]; 48 h, read-out: MIC CT 48 h): > 500 µM | MIC ([13]; 24 h, read-out: MIC CK 24 h): > 500 µM | MIC ([13]; 48 h, read-out: MIC CK 48 h): > 500 µM | MIC ([14]; 24 h, read-out: MIC CG 24 h): > 500 µM | MIC ([14]; 48 h, read-out: MIC CG 48 h): > 500 µM | MIC ([15]; 24 h, read-out: MIC TA 24 h): > 500 µM | MIC ([15]; 48 h, read-out: MIC TA 48 h): > 500 µM | MIC ([16]; 24 h, read-out: MIC AF 24 h): > 500 µM | MIC ([16]; 48 h, read-out: MIC AF 48 h): > 500 µM | MIC ([17]; 24 h, read-out: MIC LC 24 h): > 500 µM | MIC ([17]; 48 h, read-out: MIC LC 48 h): > 500 µM | MIC ([18]; 72 h, read-out: MIC TI 72 h): > 500 µM | MIC ([18]; 120 h, read-out: MIC TI 120 h): > 500 µM | MIC, antibacterial activity ([19]; statement over the bacterial panel): avoided any antibacterial action | MIC, antimycobacterial activity [20]: only negligible antimycobacterial activity | MIC, antifungal activity [21]: no antimycotic potency | MIC KP-E 24 h [22]: >500 µM | MIC KP-E 48 h [22]: >500 µM | MIC KP 24 h [23]: >500 µM | MIC KP 48 h [23]: >500 µM

O=C(O)c1ccc(N=Cc2cc(O)ccc2O)cc1 [1i, 4-[(2,5-Dihydroxybenzylidene)amino]benzoic acid]
MIC [1, 24]: 500 µM (≈ 129 µg/mL) | MIC [1, 25]: 500 µM (≈ 129 µg/mL) | MIC [2, 26]: 250 µM (≈ 64.3 µg/mL) | MIC [2, 27]: 250 µM (≈ 64.3 µg/mL) | MIC [3, 28]: 250 µM (≈ 64.3 µg/mL) | MIC [3, 29]: 250 µM (≈ 64.3 µg/mL) | MIC [4, 30]: 500 µM (≈ 129 µg/mL) | MIC [4, 31]: 500 µM (≈ 129 µg/mL) | MIC [5, 32]: > 500 µM | MIC [5, 33]: > 500 µM | MIC [6, 34]: 500 µM (≈ 129 µg/mL) | MIC [6, 35]: 500 µM (≈ 129 µg/mL) | MIC ([6]; time not stated, read-out: MIC, P. aeruginosa): 500 µM (≈ 129 µg/mL) | MIC [7, 36]: 500 µM (≈ 129 µg/mL) | MIC [7, 37]: 1000 µM (≈ 257 µg/mL) | MIC [8, 38]: 1000 µM (≈ 257 µg/mL) | MIC [8, 39]: > 1000 µM | MIC [9, 40]: 500 µM (≈ 129 µg/mL) | MIC [9, 41]: 500 µM (≈ 129 µg/mL) | MIC [9, 42]: 1000 µM (≈ 257 µg/mL) | MIC [10, 43]: 500 µM (≈ 129 µg/mL) | MIC [10, 44]: 1000 µM (≈ 257 µg/mL) | MIC [10, 45]: 1000 µM (≈ 257 µg/mL) | MIC [11, 46]: 500 µM (≈ 129 µg/mL) | MIC [11, 47]: 500 µM (≈ 129 µg/mL) | MIC ([12]; 24 h, read-out: MIC CT 24 h): > 500 µM | MIC ([12]; 48 h, read-out: MIC CT 48 h): > 500 µM | MIC ([13]; 24 h, read-out: MIC CK 24 h): > 500 µM | MIC ([13]; 48 h, read-out: MIC CK 48 h): > 500 µM | MIC ([14]; 24 h, read-out: MIC CG 24 h): 250 µM (≈ 64.3 µg/mL) | MIC ([14]; 48 h, read-out: MIC CG 48 h): 250 µM (≈ 64.3 µg/mL) | MIC ([15]; 24 h, read-out: MIC TA 24 h): > 500 µM | MIC ([15]; 48 h, read-out: MIC TA 48 h): > 500 µM | MIC ([16]; 24 h, read-out: MIC AF 24 h): > 500 µM | MIC ([16]; 48 h, read-out: MIC AF 48 h): > 500 µM | MIC ([17]; 24 h, read-out: MIC LC 24 h): > 500 µM | MIC ([17]; 48 h, read-out: MIC LC 48 h): > 500 µM | MIC ([18]; 72 h, read-out: MIC TI 72 h): > 500 µM | MIC ([18]; 120 h, read-out: MIC TI 120 h): > 500 µM | MIC ([19]; Staphylococcus aureus, MRSA, read-out: MIC, multiple Gram-positive strains including MRSA): ≥ 250 µM | MIC [21]: ≥ 250 µM | MIC KP-E 24 h [22]: 500 µM (≈ 129 µg/mL) | MIC KP-E 48 h [22]: 500 µM (≈ 129 µg/mL) | MIC KP 24 h [23]: 500 µM (≈ 129 µg/mL) | MIC KP 48 h [23]: 500 µM (≈ 129 µg/mL)
